Measurements from patent publication US7632830B2, “Lactam compounds and pharmaceutical use thereof” (Ajinomoto Co., Inc., priority 2000, dated 2009).

The compounds below were run on adipose cells of rats (assay: Evaluation of the sugar-transporting activity (2-[14C(U)]-deoxy-D-glucose incorporation)). Conditions: 100 μg/ml of each compound; evaluated on the basis of the reinforcing effect of insulin (100 nM); rat adipose cells.
Assay type: cell-based
Description: After the decapitation and venesection of 6 male Wistar rats (body weight: 150 to 200 g), an incision was made in the abdomen of each rat to extract 6 g in total of epididymal adipose tissues. The tissues were finely cut into 2 mm×2 mm pieces in 6 ml of KRH (Krebs-Ringer Hepes, composition: 130 mM of sodium chloride, 4.7 mM of potassium chloride, 1.2 mM of potassium dihydrogenphosphate, 1.2 mM of magnesium sulfate, 1 mM of calcium chloride and 25 mM of Hepes, pH=7.6) containing 5% of BSA (bovine serum albumin). 24 mg of collagenase (type I) was added thereto and the digestion treatment was conducted for about 40 minutes to obtain about 6 ml of isolated adipose cells. The collagenase was removed by the buffer exchange. 2% BSA/KRH solution was added to the residue for the re-suspension to obtain 45 ml of an adipose cell suspension.
The sugar-transporting activity of the compounds of the present invention was evaluated with reference to a method described in a literature [Annual Review of Biochemistry, Vol. 55, p. 1059 (1986)]. In the test, 200 μl of the adipose cell suspension was poured in each polystyrene test tube, 100 μl of the solution of the test substance (by dilution of 10 mg/ml substance dimethyl sulfoxide solution with KRH) was added thereto, and the obtained mixture was shaken and then cultured at 37° C. for 30 minutes.
The sugar-transporting activity was evaluated by measuring the quantity of 2-[^14C(U)]-deoxy-D-glucose incorporated per a unit time. Namely, 2-[^14C(U)]-deoxy-D-glucose was added to the adipose cell suspension after the pre-culture (the final concentration: 0.5 μCi/sample). 5 minutes after, cytochalasin B (final concentration: 10 μM) was added to the mixture to terminate the sugar transportation. After forming a dinonyl phthalate layer, the obtained mixture was centrifuged to separate the adipose cells from the buffer. The quantity of 2-[^14C(U)]-deoxy-D-glucose contained in the adipose cell layer was determined with a liquid scintillation counter to determine the quantity of the incorporated sugar. In this evaluation system, when insulin (100 nM) having the effect of increasing the sugar transportation was used, the effect was about 7 times as high as that obtained in the insulin-free control group.
The results of the evaluation of the sugar-transporting activity obtained by using 100 μg/ml of each compound of the present invention are shown in Table 6. The sugar transporting activity in Table 6 was evaluated on the basis of the reinforcing effect of insulin (100 nM). […] The symbols in Table 6 are as follows: • No: Example No., and • A: sugar transporting activity.
The results of the evaluation of the sugar-transporting activity obtained by using each compound of the present invention are shown in Table 7. The sugar transporting activity in Table 7 was determined in terms of the concentration (EC50: μg/ml) of a test compound, having a reinforcing effect corresponding to 50% on the basis of the reinforcing effect of insulin having a reinforcing effect of 100%.

Row | Compound | activation at 100 µg/mL [%]
1 | O=C1NCC2=C1C(c1ccc(OCc3ccccc3)cc1)Nc1ccccc1N2 (stereo not drawn) [Example 1] | 40 to 70
2 | O=C1NCC2=C1C(c1ccc(Cl)cc1)Nc1ccccc1N2 (stereo not drawn) [Example 2] | 20 to 40
3 | O=C1NCC2=C1C(c1ccc(I)cc1)Nc1ccccc1N2 (stereo not drawn) [Example 3] | 20 to 40
4 | CC(C)(C)c1ccc(C2Nc3ccccc3NC3=C2C(=O)NC3)cc1 (stereo not drawn) [Example 5] | 20 to 40
5 | O=C1NCC2=C1C(c1ccc(C#Cc3ccccc3)cc1)Nc1ccccc1N2 (stereo not drawn) [Example 6] | 40 to 70
6 | O=C1NCC2=C1C(c1ccc(-c3ccccc3)cc1)Nc1ccccc1N2 (stereo not drawn) [Example 7] | 40 to 70
7 | O=C1NCC2=C1C(c1ccc(-c3ccc([N+](=O)[O-])cc3)cc1)Nc1ccccc1N2 (stereo not drawn) [Example 8] | ≥ 70
8 | O=C1NCC2=C1C(c1ccc3c(c1)Cc1ccccc1-3)Nc1ccccc1N2 (stereo not drawn) [Example 9] | 40 to 70
9 | CCCCOc1ccc(C2Nc3ccccc3NC3=C2C(=O)NC3)cc1 (stereo not drawn) [Example 10] | 20 to 40
10 | CCCCCCCCCCCCOc1ccc(C2Nc3ccccc3NC3=C2C(=O)NC3)cc1 (stereo not drawn) [Example 11] | 40 to 70
11 | O=C1NCC2=C1C(c1ccc(OC3CCCCCC3)cc1)Nc1ccccc1N2 (stereo not drawn) [Example 12] | 20 to 40
12 | O=C1NCC2=C1C(c1ccc(OC3C4CC5CC(C4)CC3C5)cc1)Nc1ccccc1N2 (stereo not drawn) [Example 13] | 40 to 70
13 | O=C1NCC2=C1C(c1ccc(OCC34CC5CC(CC(C5)C3)C4)cc1)Nc1ccccc1N2 (stereo not drawn) [Example 14] | ≥ 70
14 | O=C1NCC2=C1C(c1ccc(OCCC34CC5CC(CC(C5)C3)C4)cc1)Nc1ccccc1N2 (stereo not drawn) [Example 15] | 40 to 70
15 | O=C1NCC2=C1C(c1ccc(OCCC3CCCCC3)cc1)Nc1ccccc1N2 (stereo not drawn) [Example 16] | 40 to 70
16 | O=C1NCC2=C1C(c1ccc(-n3cccn3)cc1)Nc1ccccc1N2 (stereo not drawn) [Example 17] | 20 to 40
17 | O=C1NCC2=C1C(c1ccc(Cl)cc1Cl)Nc1ccccc1N2 (stereo not drawn) [Example 20] | 20 to 40

Row | Compound | activation at 100 µg/mL [%]
18 | CCCCOc1ccc(C2Nc3ccccc3NC3=C2C(=O)NC3)c(OC)c1 (stereo not drawn) [Example 21] | 40 to 70
19 | CCCCOc1ccc(C2Nc3ccccc3NC3=C2C(=O)NC3)c(OCCCC)c1 (stereo not drawn) [Example 22] | ≥ 70
20 | CCCCOc1ccc(C2Nc3ccccc3NC3=C2C(=O)NC3)c(OCC)c1 (stereo not drawn) [Example 23] | ≥ 70
21 | CCCCOc1ccc(C2Nc3ccccc3NC3=C2C(=O)NC3)c(OCCC)c1 (stereo not drawn) [Example 24] | ≥ 70
22 | CCCOc1cc(OCC)ccc1C1Nc2ccccc2NC2=C1C(=O)NC2 (stereo not drawn) [Example 25] | 40 to 70
23 | CCCOc1ccc(C2Nc3ccccc3NC3=C2C(=O)NC3)c(OCC)c1 (stereo not drawn) [Example 26] | 40 to 70
24 | CCCCCCOc1ccc(C2Nc3ccccc3NC3=C2C(=O)NC3)c(OC)c1 (stereo not drawn) [Example 27] | 40 to 70
25 | COc1cc(OCc2ccccc2)ccc1C1Nc2ccccc2NC2=C1C(=O)NC2 (stereo not drawn) [Example 28] | 40 to 70
26 | CCCCCCOc1ccc(C2Nc3ccccc3NC3=C2C(=O)NC3)c(O)c1 (stereo not drawn) [Example 29] | 20 to 40
27 | CC(C)(C)c1ccc(C2Nc3ccccc3NC3=C2C(=O)NC3)c(Cl)c1 (stereo not drawn) [Example 30] | 20 to 40
28 | CC(C)(C)CC(C)(C)c1ccc(C2Nc3ccccc3NC3=C2C(=O)NC3)c(Cl)c1 (stereo not drawn) [Example 31] | ≥ 70
29 | O=C1NCC2=C1C(c1cnc(-c3ccccc3)nc1)Nc1ccccc1N2 (stereo not drawn) [Example 34] | 20 to 40
30 | O=C1NCC2=C1[C@@H](c1ccc(Br)cc1)N[C@@H]1CCCC[C@H]1N2 [Example 37] | 40 to 70
31 | O=C1NCC2=C1[C@@H](c1ccc(OCc3ccccc3)cc1O)N[C@@H]1CCCC[C@H]1N2 [Example 38] | ≥ 70
32 | COc1ccccc1[C@H]1N[C@@H]2CCCC[C@H]2NC2=C1C(=O)NC2 [Example 39] | ≥ 70
33 | CCCCOc1ccc([C@H]2N[C@@H]3CCCC[C@H]3NC3=C2C(=O)NC3)c(OCCCC)c1 [Example 40] | ≥ 70
